# Results taken from patent publication US20210114983A1, “Cathepsin C inhibitors” (National Institute of Biological Sciences, Beijing, priority 2018, published 2021).
# Molecular target: rhCatC (Cathepsin C) (Homo sapiens, UniProt P53634)
# Test: In Vitro CatC Enzyme Assay
# Type: biochemical
# Details: read-out: Cat C Enzy (Cathepsin C inhibitory activity, IC50)
# Description: In Vitro CatC Enzyme Assay
# The CatC enzyme assay was performed in black 384-well plate. Firstly, rhCatC (440 nM) was activated by rhCatL (300 nM) in activation buffer (25 mM MES, 5 mM DTT, pH 6.0) at room temperature for 2 h and then activated rhCatC was diluted to 4.4 nM in assay buffer (25 mM MES, 50 mM NaCl, 5 mM DTT, 0.01% (v/v) Triton X100, pH 6.0), 14 μL activated rhCatC and 1 μL compound in 10% DMSO or 10% DMSO were incubated at room temperature for 3 h, and 5 μL substrate (Gly-Phe-AFC) was added to final concentration of 100 μM. After 60 min reaction, the product of the reaction was measured in the Enspire plate reader using Ex λ400 nm and Em λ505 nm for AFC. A standard irreversible CatC inhibitor 10 by AstraZeneca (J. Med. Chem. 2014, 57, 2357-2367) was used as an inhibitor control in the assay.
# Sequence of rhCatC (Cathepsin C) (P53634 25-134 limits assumed): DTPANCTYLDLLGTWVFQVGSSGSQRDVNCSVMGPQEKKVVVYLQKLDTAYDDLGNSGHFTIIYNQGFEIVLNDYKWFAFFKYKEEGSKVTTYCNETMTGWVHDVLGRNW
# Sequence of rhCatC (Cathepsin C) (P53634 231-394 limits assumed): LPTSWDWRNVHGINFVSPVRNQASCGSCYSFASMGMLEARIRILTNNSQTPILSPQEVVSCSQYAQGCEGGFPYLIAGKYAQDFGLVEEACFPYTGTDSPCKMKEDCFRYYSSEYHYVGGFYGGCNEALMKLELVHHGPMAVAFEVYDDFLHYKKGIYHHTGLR
# Sequence of rhCatC (Cathepsin C) (P53634 395-463 limits assumed): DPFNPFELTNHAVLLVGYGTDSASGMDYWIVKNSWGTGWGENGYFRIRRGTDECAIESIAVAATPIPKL
row,SMILES,IC50 [nM]
1,"COc1cc(N2CCN(C)CC2)ccc1Nc1ccc(Cl)c(Oc2cccc(NC(=O)C=C(C)C)c2)n1 [Compound 12, N-(3-((3-chloro-6-((2-methoxy-4-(4-methylpiperazin-1-yl)phenyl)amino)pyridin-2-yl)oxy)phenyl)-3-methylbut-2-enamide]",300 to 30000
2,"C#CC(=O)Nc1cccc(Oc2nc(Nc3ccc(N4CCN(C)CC4)cc3OC)ccc2Cl)c1 [Compound 13, N-(3-((3-chloro-6-((2-methoxy-4-(4-methylpiperazin-1-yl)phenyl)amino)pyridin-2-yl)oxy)phenyl)propiolamide]",300 to 30000
3,"C=CC(=O)Nc1cccc(Oc2nc(Nc3ccc(N4CCN(CC5CC5)CC4)cc3)ccc2Cl)c1 [Compound 14, N-(3-((3-chloro-6-((4-(4-(cyclopropylmethyl)piperazin-1-yl)phenyl)amino)pyridin-2-yl)oxy)phenyl)acrylamide]",300 to 30000
4,"C=CC(=O)Nc1cccc(Oc2nc(Nc3ccc(N4CCN(CC5CCCC5)CC4)cc3)ccc2Cl)c1 [Compound 15, N-(3-((3-chloro-6-((4-(4-(cyclopentylmethyl)piperazin-1-yl)phenyl)amino)pyridin-2-yl)oxy)phenyl)acrylamide]",300 to 30000
5,"C=CC(=O)Nc1cccc(Oc2nc(Nc3ccc(N4CCN(C)CC4)cc3OC)ccc2C(F)(F)F)c1 [Compound 16, N-(3-((6-((2-methoxy-4-(4-methylpiperazin-1-yl)phenyl)amino)-3-(trifluoromethyl)pyridin-2-yl)oxy)phenyl)acrylamide]",300 to 30000
6,"C=CC(=O)Nc1cccc(Oc2nc(Nc3ccc(N4CCN(C)CC4)cc3OC)ccc2C#N)c1 [Compound 17, N-(3-((3-cyano-6-((2-methoxy-4-(4-methylpiperazin-1-yl)phenyl)amino)pyridin-2-yl)oxy)phenyl)acrylamide]",300 to 30000
7,"C=CC(=O)Nc1cc(Oc2nc(Nc3ccc(N4CCN(C)CC4)cc3OC)ccc2Cl)ccc1C [Compound 18, N-(5-((3-chloro-6-((2-methoxy-4-(4-methylpiperazin-1-yl)phenyl)amino)pyridin-2-yl)oxy)-2-methylphenyl)acrylamide]",300 to 30000
8,"C=CC(=O)Nc1cccc(Nc2nc(Nc3ccc(N4CCN(C)CC4)cc3OC)ccc2Cl)c1 [Compound 19, N-(3-((3-chloro-6-((2-methoxy-4-(4-methylpiperazin-1-yl)phenyl)amino)pyridin-2-yl)amino)phenyl)acrylamide]",300 to 30000
9,"C=CC(=O)Nc1cccc(Oc2cccc(Nc3ccc(N4CCN(C)CC4)cc3OC)n2)c1 [Compound 21, N-(3-((6-((2-methoxy-4-(4-methylpiperazin-1-yl)phenyl)amino)pyridin-2-yl)oxy)phenyl)acrylamide]",300 to 30000
10,"C=CC(=O)Nc1cccc(Oc2nc(Nc3ccc(N4CCN(C)CC4)cc3OC)ccc2N(C)C)c1 [Compound 22, N-(3-((3-(dimethylamino)-6-((2-methoxy-4-(4-methylpiperazin-1-yl)phenyl)amino)pyridin-2-yl)ox)phenyl)acrylamide]",300 to 30000
11,"C#Cc1ccc(Nc2ccc(N3CCN(C)CC3)cc2OC)nc1Oc1cccc(NC(=O)C=C)c1 [Compound 23, N-(3-((3-ethynyl-6-((2-methoxy-4-(4-methylpiperazin-1-yl)phenyl)amino)pyridin-2-yl)oxy)phenyl)acrylamide]",300 to 30000
12,"C=CC(=O)Nc1cccc(N(C)c2cccc(Nc3ccc(N4CCN(C)CC4)cc3OC)n2)c1 [Compound 24, N-(3-((6-((2-methoxy-4-(4-methylpiperazin-1-yl)phenyl)amino)pyridin-2-yl)(methyl)amino)phenyl)acrylamide]",300 to 30000
13,"C=CC(=O)Nc1cccc(N(Cc2ccccc2)c2cccc(Nc3ccc(N4CCN(C)CC4)cc3OC)n2)c1 [Compound 25, N-(3-(benzyl(6-((2-methoxy-4-(4-methylpiperazin-1-yl)phenyl)amino)pyridin-2-yl)amino)phenyl)acrylamide]",300 to 30000
14,C=CC(=O)Nc1cccc(Oc2nc(N(C)c3ccc(N4CCNCC4)cc3)ccc2Cl)c1 [Compound 26],300 to 30000
15,"C=CC(=O)Nc1cccc(Oc2nc(N(Cc3ccccc3)c3ccc(N4CCNCC4)cc3)ccc2Cl)c1 [Compound 27, N-(3-((6-(benzyl(4-(piperazin-1-yl)phenyl)amino)-3-chloropyridin-2-yl)oxy)phenyl)acrylamide]",300 to 30000

# Other lines, results leading:
row,IC50 [nM],SMILES
1,300 to 30000,"C=CC(=O)Nc1cccc(Oc2nc(Nc3ccc(N4CCN(C)CC4)cc3OC)ccc2Cl)c1 [Compound 1, N-(3-((3-chloro-6-((2-methoxy-4-(4-methylpiperazin-1-yl)phenyl)amino)pyridin-2-yl)oxy)phenyl)acrylamide]"
2,300 to 30000,"C=CC(=O)Nc1cccc(Oc2nc(Nc3ccc(N4CCOCC4)cc3)ccc2Cl)c1 [Compound 2, N-(3-((3-chloro-6-((4-morpholinophenyl)amino)pyridin-2-yl)oxy)phenyl)acrylamide]"
3,300 to 30000,"C=CC(=O)Nc1cccc(Oc2nc(Nc3ccccc3)ccc2Cl)c1 [Compound 3, N-(3-((3-chloro-6-(phenylamino)pyridin-2-yl)oxy)phenyl)acrylamide]"
4,300 to 30000,"C=CC(=O)Nc1cccc(Oc2nc(Nc3ccc(N4CCN(C)CC4)cc3)ccc2Cl)c1 [Compound 4, N-(3-((3-chloro-6-((4-(4-methylpiperazin-1-yl)phenyl)amino)pyridin-2-yl)oxy)phenyl)acrylamide]"
5,300 to 30000,"C=CC(=O)Nc1cccc(Oc2cccc(Nc3ccc(N4CCN(C)CC4)cc3)n2)c1 [Compound 5, N-(3-((6-((4-(4-methylpiperazin-1-yl)phenyl)amino)pyridin-2-yl)oxy)phenyl)acrylamide]"
6,300 to 30000,"C=CC(=O)Nc1cccc(Oc2nc(Nc3cccc(CN)c3)ccc2Cl)c1 [Compound 6, N-(3-((6-((3-(aminomethyl)phenyl)amino)-3-chloropyridin-2-yl)oxy)phenyl)acrylamide]"
7,300 to 30000,"C=CC(=O)Nc1cccc(Oc2nc(Nc3ccc(N4CCNCC4)cc3)ccc2Cl)c1 [Compound 7, N-(3-((3-chloro-6-((4-(piperazin-1-yl)phenyl)amino)pyridin-2-yl)oxy)phenyl)acrylamide]"
8,300 to 30000,C/C=C/C(=O)Nc1cccc(Oc2nc(Nc3ccc(N4CCNCC4)cc3)ccc2Cl)c1 [Compound 8]
9,300 to 30000,"C=CC(=O)Nc1cccc(Oc2nc(Nc3ccc(N4CCC[C@@H](N)C4)cc3OC)ccc2Cl)c1 [Compound 9, (R)-N-(3-((6-((4-(3-aminopiperidin-1-yl)-2-methoxyphenyl)amino)-3-chloropyridin-2-yl)oxy)phenyl)acrylamide]"
10,300 to 30000,"C=CC(=O)Nc1cccc(Oc2nc(Nc3ccc(CCN)cc3)ccc2Cl)c1 [Compound 10, N-(3-((6-((4-(2-aminoethyl)phenyl)amino)-3-chloropyridin-2-yl)oxy)phenyl)acrylamide]"
11,300 to 30000,"C=CC(=O)Nc1cccc(Oc2nc(Nc3ccc(N4CCN(C)CC4)c(OC)c3)ccc2Cl)c1 [Compound 11, N-(3-((3-chloro-6-((3-methoxy-4-(4-methylpiperazin-1-yl)phenyl)amino)pyridin-2-yl)oxy)phenyl)acrylamide]"
12,3 to 300,"C=CC(=O)Nc1cccc(Oc2nc(Nc3ccc(N4CCN(C)CC4)cc3OC)ccc2N2CCCC2)c1 [Compound 20, N-(3-((6-((2-methoxy-4-(4-methylpiperazin-1-yl)phenyl)amino)-3-(pyrrolidin-1-yl)pyridin-2-yl)oxy)phenyl)acrylamide]"
13,3 to 300,"C=CC(=O)Nc1cc(Oc2nc(Nc3ccc(N4CCN(C)CC4)cc3OC)ccc2N2CCCC2)ccc1C [Compound 29, N-(5-((6-((2-methoxy-4-(4-methylpiperazin-1-yl)phenyl)amino)-3-(pyrrolidin-1-yl)pyridin-2-yl)oxy)-2-methylphenyl)acrylamide]"
14,3 to 300,"C=CC(=O)Nc1cc(Oc2nc(Nc3ccc(N4CCN(C)CC4)cc3OC)ccc2N2CCOCC2)ccc1C [Compound 30, N-(5-((6-((2-methoxy-4-(4-methylpiperazin-1-yl)phenyl)amino)-3-morpholinopyridin-2-yl)oxy)-2-methylphenyl)acrylamide]"
15,3 to 300,"C=CC(=O)Nc1cc(Oc2nc(Nc3ccc(N4CCN(C)CC4)cc3OC)ccc2N2CCC(O)C2)ccc1C (stereo not drawn) [Compound 31, N-(5-((3-(3-hydroxypyrrolidin-1-yl)-6-((2-methoxy-4-(4-methylpiperazin-1-yl)phenyl)amino)pyridin-2-yl)oxy)-2-methylphenyl)acrylamide]"
16,3 to 300,"C=CC(=O)Nc1cc(Oc2nc(Nc3ccc(N4CCN(C)CC4)cc3OC)ccc2N2CCCC(O)C2)ccc1C (stereo not drawn) [Compound 32, N-(5-((3-(3-hydroxypiperidin-1-yl)-6-((2-methoxy-4-(4-methylpiperazin-1-yl)phenyl)amino)pyridin-2-yl)oxy)-2-methylphenyl)acrylamide]"
17,3 to 300,"C=CC(=O)Nc1cc(Oc2nc(Nc3ccc(N4CCN(C)CC4)cc3OC)ccc2N2CCN(C)CC2)ccc1C [Compound 33, N-(5-((6-((2-methoxy-4-(4-methylpiperazin-1-yl)phenyl)amino)-3-(4-methylpiperazin-1-yl)pyridin-2-yl)oxy)-2-methylphenyl)acrylamide]"
18,3 to 300,"C=CC(=O)Nc1cc(Oc2nc(Nc3ccc(N4CCN(C)CC4)cc3OC)ccc2-c2ccccc2)ccc1C [Compound 34, N-(5-((6-((2-methoxy-4-(4-methylpiperazin-1-yl)phenyl)amino)-3-phenylpyridin-2-yl)oxy)-2-methylphenyl)acrylamide]"
